Experimental data taken from publication PMC5520057, “Modulation of nongenomic activation of PI3K signalling by tetramerization of N-terminally-cleaved RXRα” (Nature Communications, 2017).

How the values were obtained:
tRXRα [1] = assay: MCF-7/tRXRα xenograft tumours, immunostaining; type: in vivo; conditions: nude mice; K-80003 20 mg kg^−1 i.p., 12 days; anti-Myc
Protocol: (§1) Cells mounted on glass slides or tumour tissue frozen sections (5-μm-thick) were washed with PBS and fixed in 4% paraformaldehyde (PFA) for 15 min and permeabilized with PBS containing 0.1% Triton X-100 for 15 min. Fixed cells or tumour tissues were blocked with 5 mg ml^−1 BSA in PBS for 30 min at room temperature, followed with incubation with primary antibodies for 3 h and secondary antibodies at room temperature for 1 h and co-stained with 4′6′-diamidino-2-phenylindole (DAPI) to visualize nuclei. The images were taken under an LSM-510 confocal laser scanning microscope system (Carl Zeiss).
For nude mice xenograft study, Myc-RXRα and Myc-tRXRα cloned into pcdna3.0 vector were stably transfected into MCF-7 cells, and the resulting stable clones and control clone (2 × 10^6 cells in 100 μl) were injected subcutaneously into nude mice (BALB/c, SPF grade, 16–18 g, 4–5-week old). For drug treatment, mice were intraperitoneally injected (i.p.) daily with K-80003 (20 mg kg^−1) diluted in Tween-80 or vehicle (tween-80). Body weight and tumour size were measured every 2 days. Mice were killed after 12-day drug treatment and the tumours removed for various assessments. […]

tRXRα [2] = system: tRXRα; set-up: method as in PMID 20541701; conditions: cited from earlier work
tRXRα [3] = assay: Subcellular localization of tRXRα, immunostaining; type: cell-based; conditions: MCF-7 cells; K-80003 (5 × 10^−6 M) for 3 h, then TNFα (10 ng ml^−1) for 30 min
Protocol: as §1

RXRα-LBD/F439A = assay: Non-denaturing gel electrophoresis, F439A mutant; type: biochemical, human; conditions: K-80003 (20 μM), 3 h at 4 °C
Protocol: (§2) The human RXRα LBD (residues Thr223 to Thr462) cloned as an N-terminal histidine-tagged fusion protein in pET15b expression vector was expressed in Escherichia coli BL21 strain (Stratagene). After sonication, cell extract was incubated with the His60 Ni Superflow resin, and His-tagged RXRα-LBD-resin complexes were washed, eluted and concentrated to 5 mg ml^−1 for subsequent trails. For crystallization experiment, bovine thrombin (Sigma) was used to cleave the His tag from the purified His-tagged RXRα-LBD. The resulting His tag was removed on the Resource-Q column (GE) using 0.1–1 M NaCl gradient and the Tris-Cl pH 8 buffer. RXRα-LDB was further purified using gel filtration on a Superdex 200 2660 column (GE) pre-equilibrated with the 75 mM NaCl, 20 mM Tris-Cl buffer (pH 8).

RXRα-LBD [4] = target: T1, RXRα-LBD (Homo sapiens, UniProt P19793); assay: Gel filtration chromatography, RXRα-LBD; type: biochemical; conditions: HiLoad 16/600 Superdex 200 pg, 50 mM Tris-Cl (pH 7.4), 200 mM NaCl, 1 ml min^−1; 2 h incubation; one of three similar experiments
T1 construct: The human RXRα LBD (residues Thr223 to Thr462); made in house; host or cells: Escherichia coli BL21
T1 sequence (P19793 223-462): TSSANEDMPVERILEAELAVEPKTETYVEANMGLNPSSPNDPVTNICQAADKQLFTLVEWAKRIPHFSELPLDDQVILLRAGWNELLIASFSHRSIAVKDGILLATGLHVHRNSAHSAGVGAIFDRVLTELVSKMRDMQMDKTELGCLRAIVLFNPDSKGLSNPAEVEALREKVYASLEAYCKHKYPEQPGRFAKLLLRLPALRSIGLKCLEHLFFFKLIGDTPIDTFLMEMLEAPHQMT
Protocol: as §2

RXRα-LBD/Q275E = assay: Non-denaturing gel electrophoresis, Q275E mutant; type: biochemical, human; conditions: K-80003 (20 μM), 3 h at 4 °C
Protocol: as §2

MCF-7/tRXRα tumour = assay: MCF-7/tRXRα xenograft in nude mice, tumour growth; type: in vivo; conditions: K-80003 20 mg kg^−1 i.p. daily for 12 days, n=6 in each group
Protocol: For nude mice xenograft study, Myc-RXRα and Myc-tRXRα cloned into pcdna3.0 vector were stably transfected into MCF-7 cells, and the resulting stable clones and control clone (2 × 10^6 cells in 100 μl) were injected subcutaneously into nude mice (BALB/c, SPF grade, 16–18 g, 4–5-week old). For drug treatment, mice were intraperitoneally injected (i.p.) daily with K-80003 (20 mg kg^−1) diluted in Tween-80 or vehicle (tween-80). Body weight and tumour size were measured every 2 days. Mice were killed after 12-day drug treatment and the tumours removed for various assessments. For MMTV-PyMT transgenic mouse study, 4-week old female mice of a transgenic mouse on the FVB/N genetic background expressing the PyMT oncogene under the control of MMTV LTR promoter[40] were fed with diet containing with or without K-80003 (100 mg kg^−1) for 4 weeks. Estimation of tumour appearance was performed by palpation once every day. Tumour tissues of left thoracic mammary glands were excised after the treatment. Portion of tissues was used to prepare extracts for western blotting, while the rest was fixed in 4% phosphate-buffered paraformaldehyde, and used for immunohistochemical staining using anti-Ki67 antibody and immunostaining using Δ197 anti-RXRα antibody. All experimentations and animal usage were performed and approved by the Animal Care and Use Committee of Xiamen University.

PI3K signalling = system: PI3K signalling; set-up: method as in PMID 20541701; conditions: cited from earlier work
RXRα-LBD/L433D = assay: ITC, RXRα-LBD/L433D mutant; type: binding, human; conditions: 25 °C, protein 50 μM, pH 7.5, compound 1 mM
Protocol: as §2
Binding of compounds to RXRα-LBD or mutant was studied in […] at 25 °C using isothermal titration calorimetry (ITC) assay that measures the heat either released or absorbed during binding. The purified His-tagged RXRα-LBD or mutant protein (50 μM in 25 mM Tris-HCl, pH 7.5, 150 mM NaCl, 0.1% DMSO) was placed in the sample cell of MicroCal VP-ITC titration calorimeter. The compounds to be studied were diluted to a concentration of 1 mM in the same buffer. All solutions were degassed before the titrations. […] Calorimetric data were analysed using MicroCal Origin software (version 7.0).

RXRα-LBD [5] = target: T1, RXRα-LBD; assay: Non-denaturing gel electrophoresis, oligomeric state of RXRα-LBD; type: biochemical; conditions: purified RXRα-LBD; 9-cis-RA (0.5 μM) and/or K-80003 (20 μM), 3 h at 4 °C
Protocol: as §2

[6] = system: p85α / tRXRα/R316E interaction; assay: coIP, p85α with tRXRα/R316E; type: cell-based; conditions: HEK293T cells; K-80003 (5 × 10^−6 M) for 6 h; coIP anti-HA
Protocol: For coIP assay[29], HEK293T cells grown in 10 cm dishes were transfected with various plasmids. Cells were lysed in 1 ml of lysis buffer (20 mM Tris (pH 7.5), 150 mM NaCl, 1% Triton X-100, 1 mM EDTA, 30 mM NaF, 2 mM sodium pyrophosphate) with a cocktail of proteinase inhibitors (Roche). Lysates were incubated with the appropriate antibody for 12 h at 4 °C and subsequently incubated with protein A-Sepharose beads for 1 h. The immunoprecipitates were collected and washed three times with lysis buffer. The protein–antibody complexes recovered on beads were subjected to immunoblotting using appropriate antibodies after separation by SDS-PAGE. Input represents 5% of cell lysates used for coIP assays.

tRXRα [7] = assay: BS3 crosslinking, transfected tRXRα; type: cell-based
Protocol: Cell lysates were then prepared and incubated with bis[sulfosuccinimidyl] suberate (BS3, Pierce) dissolved in dimethyl sulfoxide to a final concentration of 1 mM. The reactions were stopped with protein gel loading buffer. Samples were resolved by SDS/PAGE in 8% acrylamide gels and protein bands were visualized by western blotting.

CC1=C(CC(=O)O)c2cc(F)ccc2/C1=C\c1ccc(C(C)C)cc1 [K-80003]
subcellular localization of tRXRα in xenograft tumours (tRXRα [1]): a significant amount of tRXRα was found in the nucleus
binding to tRXRα (tRXRα [2]): binds to tRXRα
effect on TNFα-induced cytoplasmic colocalization of tRXRα with p85α (tRXRα [3]): inhibited, resulting in tRXRα nuclear localization
effect on tetramerization of F439A mutant (RXRα-LBD/F439A): impaired the tetramerization of respective mutants by K-80003
oligomeric state of RXRα-LBD by gel filtration (RXRα-LBD [4]): mainly existed as a tetramer
effect on tetramerization of Q275E mutant (RXRα-LBD/Q275E): impaired the tetramerization of respective mutants by K-80003
effect on tRXRα-promoted growth of MCF-7 tumour (MCF-7/tRXRα tumour): suppressed
inhibition of activation of PI3K signalling (PI3K signalling): inhibits its interaction with p85α and activation of PI3K signalling
binding to RXRα-LBD/L433D (RXRα-LBD/L433D): failed to bind to RXRα-LBD/L433D
effect on RXRα-LBD oligomeric state (RXRα-LBD [5]): induced an accumulation of tetramers
modulation of tRXRα/R316E interaction with p85α [6]: failed to modulate the interaction of both mutants with p85α
tetramerization of tRXRα with cotransfected RXRα A/B domain (tRXRα [7]; HEK293T cells, tRXRα together with RXRα-A/B, K-80003, BS3, one of three similar experiments): completely suppressed the effect of K-80003 on promoting tRXRα tetramerization
tetramerization of tRXRα (tRXRα [7]; HepG2 cells, K-80003 (5 × 10^−6 M) for 6 h, BS3 1 mM, western blotting): effectively promoted the formation of tRXRα tetramers
